Patent publication US20240269139A1, “COMPOUNDS FOR TARGETED PROTEIN DEGRADATION OF KINASES” (DANA-FARBER CANCER INSTITUTE, INC., priority 2020, published 2024)
Read-outs that look alike come from different tables or passages of the source.

What was measured:
Assay type in all cases: cell-based
[1] = target: protein kinases (human kinome) (Homo sapiens, UniProt Q2M2I8)
[2] = target: protein kinases (human kinome) (Homo sapiens, UniProt P16591); conditions: for logFC of FER (P16591-1): down; for logFC of FER: FER P16591-1
[3] = target: protein kinases (human kinome) (Homo sapiens, UniProt Q00534); conditions: for logFC CDK6: CDK6 (Q00534), direction down; for logFC of CDK6 (Q00534): down
[4] = target: T1, protein kinases (human kinome) (Homo sapiens, UniProt O14976); conditions: for logFC GAK: GAK (O14976)
T1 sequence (O14976 1-1311): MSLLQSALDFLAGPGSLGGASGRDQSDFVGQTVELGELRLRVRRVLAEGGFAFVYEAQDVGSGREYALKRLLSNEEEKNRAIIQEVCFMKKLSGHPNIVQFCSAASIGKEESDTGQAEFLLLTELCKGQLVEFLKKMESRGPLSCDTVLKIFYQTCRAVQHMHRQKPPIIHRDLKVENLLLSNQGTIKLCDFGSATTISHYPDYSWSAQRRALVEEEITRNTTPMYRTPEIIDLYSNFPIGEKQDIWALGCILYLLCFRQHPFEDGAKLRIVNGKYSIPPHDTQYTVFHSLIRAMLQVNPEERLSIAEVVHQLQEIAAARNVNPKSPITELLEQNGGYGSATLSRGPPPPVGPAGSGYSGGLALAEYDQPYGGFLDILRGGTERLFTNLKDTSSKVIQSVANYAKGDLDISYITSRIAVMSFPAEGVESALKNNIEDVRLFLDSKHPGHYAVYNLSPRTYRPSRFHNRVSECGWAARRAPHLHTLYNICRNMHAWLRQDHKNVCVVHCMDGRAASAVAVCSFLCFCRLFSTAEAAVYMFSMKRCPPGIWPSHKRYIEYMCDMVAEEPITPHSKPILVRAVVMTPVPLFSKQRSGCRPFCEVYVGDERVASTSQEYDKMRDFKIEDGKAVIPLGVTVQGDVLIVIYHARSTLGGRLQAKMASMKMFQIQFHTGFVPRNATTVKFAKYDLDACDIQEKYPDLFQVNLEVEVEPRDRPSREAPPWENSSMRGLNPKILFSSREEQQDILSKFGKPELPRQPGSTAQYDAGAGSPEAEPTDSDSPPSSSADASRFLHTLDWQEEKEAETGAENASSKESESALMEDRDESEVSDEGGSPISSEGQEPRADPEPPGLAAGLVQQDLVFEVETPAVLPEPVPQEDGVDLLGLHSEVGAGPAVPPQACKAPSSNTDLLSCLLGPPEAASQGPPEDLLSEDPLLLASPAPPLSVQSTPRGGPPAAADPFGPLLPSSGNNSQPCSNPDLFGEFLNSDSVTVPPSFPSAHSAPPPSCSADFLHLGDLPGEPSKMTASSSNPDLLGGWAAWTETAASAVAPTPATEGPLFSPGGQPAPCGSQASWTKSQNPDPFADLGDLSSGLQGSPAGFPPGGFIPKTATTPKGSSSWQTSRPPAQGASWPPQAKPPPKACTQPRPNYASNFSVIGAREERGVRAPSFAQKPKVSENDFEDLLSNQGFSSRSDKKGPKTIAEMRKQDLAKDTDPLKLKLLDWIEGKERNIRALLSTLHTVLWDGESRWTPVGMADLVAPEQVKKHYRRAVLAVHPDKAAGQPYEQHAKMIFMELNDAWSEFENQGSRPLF

[5] = AAK1 (Q2M218-1), experiment wp016, down
[6] = AAK1, accession Q2M218-1, experiment wp016, direction of change down
[7] = direction down, experiment wp016

Sequence of protein kinases (human kinome) (Homo sapiens, UniProt Q00534) (Q00534 whole entry): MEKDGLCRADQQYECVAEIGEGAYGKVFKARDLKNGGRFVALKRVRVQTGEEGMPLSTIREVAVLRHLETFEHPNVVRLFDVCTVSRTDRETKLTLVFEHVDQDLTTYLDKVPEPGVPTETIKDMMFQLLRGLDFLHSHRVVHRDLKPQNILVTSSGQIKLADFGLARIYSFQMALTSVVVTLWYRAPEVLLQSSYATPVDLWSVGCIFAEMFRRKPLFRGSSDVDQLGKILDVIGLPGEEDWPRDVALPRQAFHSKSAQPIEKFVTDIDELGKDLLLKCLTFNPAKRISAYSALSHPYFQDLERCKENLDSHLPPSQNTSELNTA
Sequence of protein kinases (human kinome) (Homo sapiens, UniProt P16591) (P16591 whole entry): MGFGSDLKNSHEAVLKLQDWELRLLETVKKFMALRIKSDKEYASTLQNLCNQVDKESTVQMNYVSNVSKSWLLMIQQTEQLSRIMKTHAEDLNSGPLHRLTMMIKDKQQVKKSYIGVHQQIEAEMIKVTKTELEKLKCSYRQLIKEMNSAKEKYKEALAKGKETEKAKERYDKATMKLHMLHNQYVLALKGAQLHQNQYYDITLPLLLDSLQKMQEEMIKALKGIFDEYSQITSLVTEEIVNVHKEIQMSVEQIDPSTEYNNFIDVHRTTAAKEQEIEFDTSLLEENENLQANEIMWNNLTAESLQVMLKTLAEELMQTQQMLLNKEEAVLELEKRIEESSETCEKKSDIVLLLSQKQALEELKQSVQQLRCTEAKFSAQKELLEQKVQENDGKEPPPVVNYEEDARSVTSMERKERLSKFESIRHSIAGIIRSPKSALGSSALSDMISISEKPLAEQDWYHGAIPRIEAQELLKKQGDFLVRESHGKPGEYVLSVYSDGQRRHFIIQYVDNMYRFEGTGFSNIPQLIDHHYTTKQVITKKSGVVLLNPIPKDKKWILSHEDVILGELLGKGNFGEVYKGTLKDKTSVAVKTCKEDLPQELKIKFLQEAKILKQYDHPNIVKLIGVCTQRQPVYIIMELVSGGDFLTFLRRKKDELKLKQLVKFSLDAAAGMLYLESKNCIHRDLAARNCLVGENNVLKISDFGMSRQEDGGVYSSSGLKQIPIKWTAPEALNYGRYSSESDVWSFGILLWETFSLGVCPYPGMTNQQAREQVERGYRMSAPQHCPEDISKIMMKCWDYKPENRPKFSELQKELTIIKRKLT
Sequence of protein kinases (human kinome) (Homo sapiens, UniProt Q2M2I8) (Q2M2I8 whole entry): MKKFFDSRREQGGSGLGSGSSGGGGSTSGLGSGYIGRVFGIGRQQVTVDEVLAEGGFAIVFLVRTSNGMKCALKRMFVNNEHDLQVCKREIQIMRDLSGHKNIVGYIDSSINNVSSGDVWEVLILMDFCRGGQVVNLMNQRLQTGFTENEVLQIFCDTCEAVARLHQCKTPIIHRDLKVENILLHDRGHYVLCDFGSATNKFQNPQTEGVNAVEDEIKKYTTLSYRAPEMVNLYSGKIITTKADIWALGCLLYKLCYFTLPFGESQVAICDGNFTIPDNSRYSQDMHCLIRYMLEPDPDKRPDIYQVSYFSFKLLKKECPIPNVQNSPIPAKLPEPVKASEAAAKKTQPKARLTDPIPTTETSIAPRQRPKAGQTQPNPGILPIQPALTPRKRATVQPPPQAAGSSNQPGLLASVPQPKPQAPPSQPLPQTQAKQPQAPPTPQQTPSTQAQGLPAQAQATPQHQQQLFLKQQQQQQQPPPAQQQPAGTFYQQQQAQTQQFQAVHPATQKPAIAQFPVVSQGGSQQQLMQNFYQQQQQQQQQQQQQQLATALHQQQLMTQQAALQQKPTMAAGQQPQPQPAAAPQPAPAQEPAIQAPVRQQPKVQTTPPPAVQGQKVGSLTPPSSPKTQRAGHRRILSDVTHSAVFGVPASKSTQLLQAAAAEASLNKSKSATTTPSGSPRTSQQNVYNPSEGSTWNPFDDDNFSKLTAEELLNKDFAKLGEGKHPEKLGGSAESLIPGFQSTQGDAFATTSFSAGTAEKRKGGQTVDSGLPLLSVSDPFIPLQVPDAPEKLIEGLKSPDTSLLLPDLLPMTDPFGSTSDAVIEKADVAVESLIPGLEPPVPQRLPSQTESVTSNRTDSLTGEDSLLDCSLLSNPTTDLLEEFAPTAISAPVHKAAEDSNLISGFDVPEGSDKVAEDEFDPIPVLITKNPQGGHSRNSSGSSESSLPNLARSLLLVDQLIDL

## CC(C)S(=O)(=O)c1ccccc1Nc1nc(Nc2ccc(N3CCN(CCOCCNC(=O)CNc4cccc5c4C(=O)N(C4CCC(=O)NC4=O)C5=O)CC3)cc2)ncc1Cl (stereo not drawn) [SK.3.91]
[1]; AAK1 (Q2M218-1), experiment wp016, 1 uM, down
  logFC AAK1: −1.114
[1]; [5]
  logFC AAK1: −1.364
[1]; AAK1 (Q2M218-1), experiment wp103, down
  logFC AAK1: −0.7763
[1]; AAK1 (Q2M218-1), experiment wp105, down
  logFC AAK1: −1.575
[1]; AAK1 (Q2M218-1), experiment wp107, down
  logFC AAK1: −1.059
[1]; AAK1 (Q2M218-1), experiment wp114, down
  logFC AAK1: −0.8221
[1]; AAK1 (Q2M218-1), experiment wp133, 2 hr, down
  logFC AAK1: −0.5506
[1]; AAK1 (Q2M218-1), experiment wp133, 4 hr, down
  logFC AAK1: −1.105
[1]; AAK1 (Q2M218-1), experiment wp160, 2 hr, down
  logFC AAK1: −0.5153
[1]; AAK1 (Q2M218-1), experiment wp160, 4 hr, down
  logFC AAK1: −1.008
[1]; AAK1 (Q2M218-1), experiment wp172, down
  logFC AAK1: −0.9755
[1]; AAK1, accession Q2M218-1, experiment wp016, 1 uM, direction of change down
  logFC AAK1: −1.114
[1]; [6]
  logFC AAK1: −1.364
[1]; AAK1, accession Q2M218-1, experiment wp103, direction of change down
  logFC AAK1: −0.7763
[1]; AAK1, accession Q2M218-1, experiment wp105, direction of change down
  logFC AAK1: −1.575
[1]; AAK1, accession Q2M218-1, experiment wp107, direction of change down
  logFC AAK1: −1.059
[1]; AAK1, accession Q2M218-1, experiment wp114, direction of change down
  logFC AAK1: −0.8221
[1]; AAK1, accession Q2M218-1, experiment wp133, 2 hr, direction of change down
  logFC AAK1: −0.5506
[1]; AAK1, accession Q2M218-1, experiment wp133, 4 hr, direction of change down
  logFC AAK1: −1.105
[1]; AAK1, accession Q2M218-1, experiment wp160, 2 hr, direction of change down
  logFC AAK1: −0.5153
[1]; AAK1, accession Q2M218-1, experiment wp160, 4 hr, direction of change down
  logFC AAK1: −1.008
[1]; AAK1, accession Q2M218-1, experiment wp172, direction of change down
  logFC AAK1: −0.9755
[2]; Experiment wp016, 1 uM
  logFC of FER (P16591-1): −3.321
[2]; Experiment wp016
  logFC of FER (P16591-1): −2.645
[2]; Experiment wp103
  logFC of FER (P16591-1): −2.81
[2]; Experiment wp105
  logFC of FER (P16591-1): −2.857
[2]; Experiment wp107
  logFC of FER (P16591-1): −2.657
[2]; Experiment wp133, 1 hr
  logFC of FER (P16591-1): −1.132
[2]; Experiment wp133, 2 hr
  logFC of FER (P16591-1): −2.153
[2]; Experiment wp133, 4 hr
  logFC of FER (P16591-1): −2.426
[2]; Experiment wp160, 1 hr
  logFC of FER (P16591-1): −0.8534
[2]; Experiment wp160, 2 hr
  logFC of FER (P16591-1): −1.88
[2]; Experiment wp160, 4 hr
  logFC of FER (P16591-1): −1.987
[2]; experiment wp016
  logFC of FER: −2.646
[2]; experiment wp016, 1 uM
  logFC of FER: −3.321
[2]; experiment wp103
  logFC of FER: −2.81
[2]; experiment wp105
  logFC of FER: −2.857
[2]; experiment wp107
  logFC of FER: −2.657
[2]; experiment wp133, 1 hr
  logFC of FER: −1.132
[2]; experiment wp133, 2 hr
  logFC of FER: −2.153
[2]; experiment wp133, 4 hr
  logFC of FER: −2.426
[2]; experiment wp160, 1 hr
  logFC of FER: −0.8534
[2]; experiment wp160, 2 hr
  logFC of FER: −1.88
[2]; experiment wp160, 4 hr
  logFC of FER: −1.987
[3]; experiment wp016
  logFC CDK6: −0.8832
[3]; experiment wp016, 1 uM
  logFC CDK6: −1.149
[3]; experiment wp103
  logFC CDK6: −0.9349
[3]; experiment wp105
  logFC CDK6: −0.5421
[3]; experiment wp107
  logFC CDK6: −1.012
[3]; experiment wp133, 1 hr
  logFC CDK6: −0.3542
[3]; experiment wp133, 2 hr
  logFC CDK6: −0.6404
[3]; experiment wp133, 4 hr
  logFC CDK6: −1.05
[3]; experiment wp160, 1 hr
  logFC CDK6: −0.3255
[3]; experiment wp160, 2 hr
  logFC CDK6: −0.5948
[3]; experiment wp160, 4 hr
  logFC CDK6: −1.133
[3]; Experiment wp016, 1 uM
  logFC of CDK6 (Q00534): −1.149
[3]; Experiment wp016
  logFC of CDK6 (Q00534): −0.8832
[3]; Experiment wp103
  logFC of CDK6 (Q00534): −0.9349
[3]; Experiment wp105
  logFC of CDK6 (Q00534): −0.5421
[3]; Experiment wp107
  logFC of CDK6 (Q00534): −1.012
[3]; Experiment wp133, 1 hr
  logFC of CDK6 (Q00534): −0.3542
[3]; Experiment wp133, 2 hr
  logFC of CDK6 (Q00534): −0.6404
[3]; Experiment wp133, 4 hr
  logFC of CDK6 (Q00534): −1.05
[3]; Experiment wp160, 1 hr
  logFC of CDK6 (Q00534): −0.3255
[3]; Experiment wp160, 2 hr
  logFC of CDK6 (Q00534): −0.5948
[3]; Experiment wp160, 4 hr
  logFC of CDK6 (Q00534): −1.133
[4]; Experiment wp016, 1 uM, down
  logFC of GAK (O14976): −0.3526
[4]; Experiment wp016, down
  logFC of GAK (O14976): −0.5011
[4]; Experiment wp105, down
  logFC of GAK (O14976): −0.3832
[4]; [7]
  logFC GAK: −0.5011
[4]; direction down, experiment wp018, 1 uM
  logFC GAK: −0.3526
[4]; direction down, experiment wp105
  logFC GAK: −0.3832
[4]; direction down, experiment wp160, 4 hr
  logFC GAK: −0.3241
[4]; experiment wp160, 4 hr, down
  logFC GAK: −0.3241

## CC(C)S(=O)(=O)c1ccccc1Nc1nc(Nc2ccc(N3CCN(CCOCCOCCNC(=O)CNc4cccc5c4C(=O)N(C4CCC(=O)NC4=O)C5=O)CC3)cc2)ncc1Cl (stereo not drawn) [TL12.186]
[1]; [5]
  logFC AAK1: −1.338
[1]; AAK1 (Q2M218-1), experiment wp131, down
  logFC AAK1: −1.52
[1]; AAK1 (Q2M218-1), experiment wp137, down
  logFC AAK1: −1.31
[1]; [6]
  logFC AAK1: −1.338
[1]; AAK1, accession Q2M218-1, experiment wp131, direction of change down
  logFC AAK1: −1.52
[1]; AAK1, accession Q2M218-1, experiment wp137, direction of change down
  logFC AAK1: −1.31
[2]; Experiment wp016
  logFC of FER (P16591-1): −2.727
[2]; Experiment wp131
  logFC of FER (P16591-1): −2.583
[2]; Experiment wp137
  logFC of FER (P16591-1): −2.329
[2]; experiment wp016
  logFC of FER: −2.727
[2]; experiment wp131
  logFC of FER: −2.583
[2]; experiment wp137
  logFC of FER: −2.329
[3]; experiment wp016
  logFC CDK6: −0.5831
[3]; experiment wp131
  logFC CDK6: −0.9892
[3]; experiment wp137
  logFC CDK6: −0.8724
[3]; Experiment wp016
  logFC of CDK6 (Q00534): −0.5831
[3]; Experiment wp131
  logFC of CDK6 (Q00534): −0.9892
[3]; Experiment wp137
  logFC of CDK6 (Q00534): −0.8724
[4]; Experiment wp016, down
  logFC of GAK (O14976): −0.3354
[4]; [7]
  logFC GAK: −0.3354

## CC(C)S(=O)(=O)c1ccccc1Nc1nc(Nc2ccc(N3CCN(CCOCCNC(=O)CNc4ccc5c(c4)C(=O)N(C4CCC(=O)NC4=O)C5=O)CC3)cc2)ncc1Cl (stereo not drawn) [SK.3.93]
[1]; [5]
  logFC AAK1: −1.588
[1]; [6]
  logFC AAK1: −1.588
[2]; Experiment wp016
  logFC of FER (P16591-1): −2.64
[2]; experiment wp016
  logFC of FER: −2.64
[3]; experiment wp016
  logFC CDK6: −0.8585
[3]; Experiment wp016
  logFC of CDK6 (Q00534): −0.8585
[4]; Experiment wp016, down
  logFC of GAK (O14976): −0.4334
[4]; [7]
  logFC GAK: −0.4334
